For 23 compounds, IC50 results are on record in patent US10189841B2, “Purinones as ubiquitin-specific protease 1 inhibitors” (Forma Therapeutics, Inc., priority 2015, dated 2019).

Each structure is given as a SMILES string. pIC50: −log10 of the molar value.

The test has as its target USP1 (construct USP1 (I-785, GG670, 671AA)/UAF1 (I-677)-Flag) (Homo sapiens (Human), UniProt O94782, G670A/G671A). Briefly: Ubiquitin-Rhodamine 110 assay for USP1 activity. It counts as biochemical. Conditions: USP1/UAF1 25 pM, Ub-Rh110 25 nM, 30 min preincubation. A digest of the protocol:
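Two formats with the USP1/UAF1 complex and 25 nM ubiquitin-rhodamine 110 in pH 8.0 Tris buffer with calcium, glutathione and detergent. Single-point screening used 10 µM, 100 pM enzyme and 45 min. Inhibition was set against no-enzyme and DMSO wells.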

USP1 (construct USP1 (I-785, GG670, 671AA)/UAF1 (I-677)-Flag), sequence (O94782 whole entry G670A/G671A): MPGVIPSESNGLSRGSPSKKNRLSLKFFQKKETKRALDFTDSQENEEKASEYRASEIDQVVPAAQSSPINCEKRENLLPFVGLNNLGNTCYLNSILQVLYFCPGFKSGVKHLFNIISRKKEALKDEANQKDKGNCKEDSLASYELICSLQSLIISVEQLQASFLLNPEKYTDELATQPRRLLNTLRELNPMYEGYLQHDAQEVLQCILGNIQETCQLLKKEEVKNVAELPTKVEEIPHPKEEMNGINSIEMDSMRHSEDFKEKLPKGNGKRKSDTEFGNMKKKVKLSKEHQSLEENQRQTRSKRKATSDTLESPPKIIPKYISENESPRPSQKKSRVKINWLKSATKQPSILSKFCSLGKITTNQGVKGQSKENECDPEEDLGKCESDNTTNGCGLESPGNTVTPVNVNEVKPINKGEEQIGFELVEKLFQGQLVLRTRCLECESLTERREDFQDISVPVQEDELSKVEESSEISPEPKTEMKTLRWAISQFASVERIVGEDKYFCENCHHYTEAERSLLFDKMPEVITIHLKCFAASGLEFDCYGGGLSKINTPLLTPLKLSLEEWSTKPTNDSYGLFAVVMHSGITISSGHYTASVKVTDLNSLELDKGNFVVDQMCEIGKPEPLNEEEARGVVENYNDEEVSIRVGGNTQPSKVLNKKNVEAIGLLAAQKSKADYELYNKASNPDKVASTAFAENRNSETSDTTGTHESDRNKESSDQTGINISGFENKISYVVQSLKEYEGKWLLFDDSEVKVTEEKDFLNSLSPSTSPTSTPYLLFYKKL
USP1 (construct USP1 (I-785, GG670, 671AA)/UAF1 (I-677)-Flag), sequence (Q8TAF3 whole entry partner): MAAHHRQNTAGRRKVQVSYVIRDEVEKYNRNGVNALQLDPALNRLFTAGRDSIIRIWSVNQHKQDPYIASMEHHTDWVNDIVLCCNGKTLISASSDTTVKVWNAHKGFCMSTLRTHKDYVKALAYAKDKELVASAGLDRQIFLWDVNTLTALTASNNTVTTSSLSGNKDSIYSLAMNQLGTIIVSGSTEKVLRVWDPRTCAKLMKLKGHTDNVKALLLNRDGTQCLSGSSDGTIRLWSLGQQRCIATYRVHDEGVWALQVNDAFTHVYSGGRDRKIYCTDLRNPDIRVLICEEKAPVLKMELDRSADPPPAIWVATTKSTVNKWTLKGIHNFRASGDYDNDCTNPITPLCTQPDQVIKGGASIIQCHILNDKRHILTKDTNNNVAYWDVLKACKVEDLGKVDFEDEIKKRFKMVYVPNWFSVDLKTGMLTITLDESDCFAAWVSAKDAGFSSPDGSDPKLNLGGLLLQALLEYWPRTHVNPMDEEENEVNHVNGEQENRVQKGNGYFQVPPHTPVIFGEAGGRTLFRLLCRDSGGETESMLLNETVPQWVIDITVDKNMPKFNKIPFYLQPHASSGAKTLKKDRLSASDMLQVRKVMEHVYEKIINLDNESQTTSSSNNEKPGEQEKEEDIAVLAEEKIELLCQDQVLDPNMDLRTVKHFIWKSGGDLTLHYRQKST

For orientation: pIC50 means the negative decadic logarithm of the IC50, by convention in mol/L. `Cn1cc(C(F)(F)F)nc1-c1ccc(Cn2c(=O)[nH]c3cnc(-c4ccccc4C(C)(C)O)nc32)cc1` [Compound I-525, 2-(2-(2-hydroxypropan-2-yl)phenyl)-9-(4-(1-methyl-4-(trifluoromethyl)-1H-imidazol-2-yl)benzyl)-7,9-dihydro-8H-purin-8-one] gave a pIC50 greater than 7.30.

`CC(C)c1ccccc1-c1ncc2c(n1)n(Cc1ccc(OCC3CC3)cc1)c(=O)n2C` [Compound I-228, 9-(4-(cyclopropylmethoxy)benzyl)-2-(2-isopropylphenyl)-7-methyl-7,9-dihydro-8H-purin-8-one] had a pIC50 of 6.70 to 7.30.

`O=c1[nH]c2cnc(-c3cc(C(F)(F)F)ccc3C3CC3)nc2n1Cc1ccc(-n2cccn2)cc1` [Compound I-97, 9-(4-(1H-pyrazol-1-yl)benzyl)-2-(2-cyclopropyl-5-(trifluoromethyl)phenyl)-7,9-dihydro-8H-purin-8-one] gave a pIC50 of 5.70 to 6.70.

Consider `CC(C)c1ccccc1-c1ncc2[nH]c(=O)n(C3(c4ccc(-n5cccn5)cc4)CC3)c2n1` [Compound I-226, 9-(1-(4-(1H-pyrazol-1-yl)phenyl)cyclopropyl)-2-(2-isopropylphenyl)-7,9-dihydro-8H-purin-8-one], for which the pIC50 was greater than 7.30.

Turning to `CC(C)c1ccccc1-c1ncc2[nH]c(=O)n(Cc3ccc(C(=O)N4CC5(CCCO5)C4)cc3)c2n1` [Compound I-393, 9-(4-(5-oxa-2-azaspiro[3.4]octane-2-carbonyl)benzyl)-2-(2-isopropylphenyl)-7,9-dihydro-8H-purin-8-one], the negative logarithm of the IC50 (pIC50) was 5.70 to 6.70.

Turning to `CC(C)Oc1ccc(-c2ncc3[nH]c(=O)n(Cc4ccc(-c5nc(C(F)(F)F)cn5C)cc4)c3n2)c(F)n1` [Compound I-74, 2-(2-fluoro-6-isopropoxypyridin-3-yl)-9-(4-(1-methyl-4-(trifluoromethyl)-1H-imidazol-2-yl)benzyl)-7,9-dihydro-8H-purin-8-one], the pIC50 was 5.70 to 6.70.

As to `Cc1noc(C)c1-c1ccc(Cn2c(=O)[nH]c3cnc(-c4ccccc4C(C)C)nc32)cc1` [Compound I-253, 9-(4-(3,5-dimethylisoxazol-4-yl)benzyl)-2-(2-isopropylphenyl)-7,9-dihydro-8H-purin-8-one], the pIC50 is 5.70 to 6.70.

Compound `CC(C)Oc1ncccc1-c1ncc2[nH]c(=O)n(Cc3ccc(-c4nc(C(F)(F)F)cn4C)cc3)c2n1` [Compound I-416, 2-(2-isopropoxypyridin-3-yl)-9-(4-(1-methyl-4-(trifluoromethyl)-1H-imidazol-2-yl)benzyl)-7,9-dihydro-8H-purin-8-one] gave a pIC50 greater than 7.30.

For `Cc1nc(-c2ccc(Cn3c(=O)[nH]c4cnc(-c5cccc(F)c5C(C)C)nc43)cc2)no1` [Compound I-188, 2-(3-fluoro-2-isopropylphenyl)-9-(4-(5-methyl-1,2,4-oxadiazol-3-yl)benzyl)-7,9-dihydro-8H-purin-8-one], the pIC50 is greater than 7.30.

Compound `O=c1[nH]c2cnc(-c3cccnc3C3CC3)nc2n1Cc1ccc(-c2nc(C(F)(F)F)cn2C2COC2)cc1` [Compound I-33, 2-(2-cyclopropylpyridin-3-yl)-9-(4-(1-(oxetan-3-yl)-4-(trifluoromethyl)-1H-imidazol-2-yl)benzyl)-7,9-dihydro-8H-purin-8-one] had a negative logarithm of the IC50 (pIC50) greater than 7.30.

Regarding `COCCNC(=O)N(C)c1ccc(Cn2c(=O)n(C)c3cnc(-c4ccccc4C(C)C)nc32)cc1` [Compound I-485, 1-(4-((2-(2-isopropylphenyl)-7-methyl-8-oxo-7,8-dihydro-9H-purin-9-yl)methyl)phenyl)-3-(2-methoxyethyl)-1-methylurea], the pIC50 was less than 5.70.

In turn, `CC(C)c1ccc(F)cc1-c1ncc2c(n1)n(Cc1ccc(-n3cccn3)cc1)c(=O)n2C` [Compound I-9, 9-(4-(1H-pyrazol-1-yl)benzyl)-2-(5-fluoro-2-isopropylphenyl)-7-methyl-7,9-dihydro-8H-purin-8-one] had a pIC50 of 5.70 to 6.70.

In the case of `CC(C)c1ccccc1-c1ncc2[nH]c(=O)n(Cc3ccc(-c4cnn(C5CCNCC5)c4)cc3)c2n1` [Compound I-540, 2-(2-isopropylphenyl)-9-(4-(1-(piperidin-4-yl)-1H-pyrazol-4-yl)benzyl)-7,9-dihydro-8H-purin-8-one], the pIC50 is 5.70 to 6.70.

As for `Cn1cc(C(F)(F)F)nc1-c1ccc(Cn2c(=O)[nH]c3cnc(-c4cccc5cnn(C)c45)nc32)cc1` [Compound I-44, 2-(1-methyl-1H-indazol-7-yl)-9-(4-(1-methyl-4-(trifluoromethyl)-1H-imidazol-2-yl)benzyl)-7,9-dihydro-8H-purin-8-one], the pIC50 was greater than 7.30.

For the compound `COC[C@H]1CCCN1C(=O)c1ccc(Cn2c(=O)[nH]c3cnc(-c4ccccc4C(C)C)nc32)cc1` [Compound I-403, (R)-2-(2-isopropylphenyl)-9-(4-(2-(methoxymethyl)pyrrolidine-1-carbonyl)benzyl)-7,9-dihydro-8H-purin-8-one], the pIC50 is 5.70 to 6.70.

Take `CC(C)c1c(F)cccc1-c1ncc2[nH]c(=O)n(Cc3ccc(-c4cn(C)cn4)cc3)c2n1` [Compound I-308, 2-(3-fluoro-2-isopropylphenyl)-9-(4-(1-methyl-1H-imidazol-4-yl)benzyl)-7,9-dihydro-8H-purin-8-one]: the pIC50 was greater than 7.30.

On to `CNc1ncccc1-c1ncc2[nH]c(=O)n(Cc3ccc(-c4nc(C(F)(F)F)cn4C)cc3)c2n1` [Compound I-311, 9-(4-(1-methyl-4-(trifluoromethyl)-1H-imidazol-2-yl)benzyl)-2-(2-(methylamino)pyridin-3-yl)-7,9-dihydro-8H-purin-8-one], for which the pIC50 was greater than 7.30.

With `CC(C)C(=O)N1CCC(Cn2c(=O)n(C)c3cnc(-c4ccccc4C(C)C)nc32)CC1` [Compound I-462, 9-((1-isobutyrylpiperidin-4-yl)methyl)-2-(2-isopropylphenyl)-7-methyl-7,9-dihydro-8H-purin-8-one], the pIC50 is less than 5.70.

Turning to `CCN(CC)C(=O)c1ccc(Cn2c(=O)[nH]c3cnc(-c4ccccc4C(C)C)nc32)cc1` [Compound I-362, N,N-diethyl-4-((2-(2-isopropylphenyl)-8-oxo-7,8-dihydro-9H-purin-9-yl)methyl)benzamide], the pIC50 was greater than 7.30.

Turning to `CC(C)c1c(F)cccc1-c1ncc2c(n1)n(Cc1ccc(-n3cccn3)cc1)c(=O)n2C` [Compound I-8, 9-(4-(1H-pyrazol-1-yl)benzyl)-2-(3-fluoro-2-isopropylphenyl)-7-methyl-7,9-dihydro-8H-purin-8-one], the pIC50 was greater than 7.30.

For `Cc1nc(N2CCC(F)(Cn3c(=O)[nH]c4cnc(-c5ccccc5C(C)C)nc43)CC2)c(C)s1` [Compound I-514, 9-((1-(2,5-Dimethylthiazol-4-yl)-4-fluoropiperidin-4-yl)methyl)-2-(2-isopropylphenyl)-7,9-dihydro-8H-purin-8-one], the pIC50 is greater than 7.30.

Compound `CNc1nc(-c2ccccc2C(C)C)nc2c1[nH]c(=O)n2Cc1ccc(-c2nc(C(F)(F)F)cn2C)cc1` [Compound I-532, 2-(2-Isopropylphenyl)-9-(4-(1-methyl-4-(trifluoromethyl)-1H-imidazol-2-yl)benzyl)-6-(methylamino)-7,9-dihydro-8H-purin-8-one] had a pIC50 greater than 7.30.

On to `Cc1cn(C)c(-c2ccc(Cn3c(=O)[nH]c4cnc(-c5ccccc5C(C)C)nc43)cn2)n1` [Compound I-203, 9-((6-(1,4-dimethyl-1H-imidazol-2-yl)pyridin-3-yl)methyl)-2-(2-isopropylphenyl)-7,9-dihydro-8H-purin-8-one], for which the pIC50 was greater than 7.30.
